From article PMC8786932, “Bicyclic azetidines target acute and chronic stages of Toxoplasma gondii by inhibiting parasite phenylalanyl t-RNA synthetase” (Nature Communications, 2022)
“And” between values parts separate entries of the source, which are not always exact repeats. Equal entries are not always repeated. Where two headings read alike, the source gives them in different places.

What was measured:
[1] = biological target: T. gondii tachyzoites (type II ME49-FLuc); test: Luciferase-based tachyzoite growth assay; type: cell-based, Toxoplasma gondii; set-up: EC50 log inhib vs normalized response: unit: µM; conditions: for EC50 log inhib vs normalized response: Fig 1A rank order, T. gondii growth
Protocol: All assays were carried out in a 96-well plate format containing confluent HFF monolayers to support parasite growth. To avoid edge effects, only the inner 60 wells of each plate were used. All compounds described were provided by the Broad Institute as 10 mM stocks in 100% DMSO and stored at −80 °C prior to use. Pyrimethamine (Sigma-Aldrich) was prepared as 5 mM stock in 100% DMSO and stored at −20 °C prior to use.
All statistical analyses were conducted using Prism 9 (GraphPad Software, Inc.). Dose–response inhibition curves for parasite and host cell toxicity screens (EC50 values) were generated using (Log(inhibitor) vs. normalized response—Variable slope) function. […] For multiple comparisons, two-way ANOVA analysis function using either Sidák’s multiple comparisons test or Dunnett’s multiple comparisons test was applied as indicated.

[2] = test system: blood-stage P. falciparum; conditions: Fig 2A Tg_Pf_Cp EC50s; previously reported values, reference not visible in the shown part; cited from earlier work
C. parvum = conditions: Fig 2A Tg_Pf_Cp EC50s; previously reported values, reference not visible in the shown part; cited from earlier work
[3] = biological target: N. caninum expressing lacZ; test: Neospora caninum β-galactosidase assay; type: cell-based
Protocol: β-galactosidase assays were conducted using tissue culture grade 96-well plates (TPP) containing confluent monolayers of HFF cells. A 10-point compound dilution series (2-fold) for each compound was generated as described above (2X concentration, 0.1% final DMSO). Growth of the N. caninum strain expressing lacZ was monitoring using a β-galactosidase (β-gal) assay as described in[21] with the following modifications. N. caninum lacZ expressing parasites (1 × 10^3) were added (in 100 μL volume) into 96-well plates containing HFF monolayers to reach final compound concentration (5.0 μM to 0.002 μM in 200 μL total volume). Plates were incubated at 37 °C, 5% CO2 for 72 h prior to completing β-gal assay as previously described[23],[27],[51]. Briefly, parasite containing monolayers were lysed with 1.0% Triton X-100 and β-gal activity determined by adding 1 mM chlorophenolred-β-D-galactopyranoside followed by monitoring absorption at 570 nm on a Cytation 3 multi-mode imager (BioTek), as described.

[4] = test system: ex vivo T. gondii ME49-FLuc bradyzoites from tissue cysts of chronically infected mice; test: Ex vivo bradyzoite treatment assay (plaque assay); type: cell-based, Toxoplasma gondii; conditions: Fig 5H top 4, replicates, listed as Pyr
Protocol: The brains from CBA/J mice chronically infected with the ME49-FLuc strain were harvested, homogenized, and tissue cysts isolated on Percoll gradients, as described previously[9],[27]. Following isolation, purified tissue cysts were treated with acid-pepsin solution ([…] sodium chloride (NaCl), 60 mM hydrochloric acid (HCl) and freshly made pepsin (0.1 mg/mL in 1xPBS) for 10 min at 37 °C. Following acid-pepsin treatment and addition of neutralization buffer (94 mM sodium carbonate (Na2CO3), liberated bradyzoites were equally distributed into 6-well plates with 5 mL culture media containing compounds or vehicle control (0.1–0.2% DMSO final concentration). Plates were incubated undisturbed for 12–14 days followed by fixation in 100% ethanol (ETOH) for 5 min at RT, rinsing with tap water, staining in 0.1% crystal violet solution for 10 min at RT, rinsing in water and air drying. Plaques were quantified on a Zeiss AxioObserver microscope equipped with a ×2.5 objective (Department of Molecular Microbiology Imaging Facility at the Washington University School of Medicine).

[5] = test system: T. gondii ME49-FLuc chronic infection; type: in vivo, Ifngr1-/- mice; conditions: mouse, in vivo
Protocol: (§1) Ifngr1^−/− (B6.129S7-Ifngr1 ^tm1Agt /J) and CBA/J mice were purchased from Jackson Laboratory and bred locally at Washington University. Animal studies were conducted according to the U.S. Public Health Service policy on human care and use of laboratory animals. Animals were maintained in facilities approved by the Association for Assessment and Accreditation of Laboratory Animal Care. Studies were approved by Division of Comparative Medicine, Washington University. […] Animals were maintained on a 12:12 light cycle, room temperature maintained at 70℉ ± 2℉, and room humidity maintained at 50% ± 20%.
(§2) Testing of compounds to prevent reactivation of chronic infection was […] to test the efficacy of PheRS inhibitors against chronic infection. In both cases, male and female C57BL/6 Ifngr1^−/− mice were infected by oral gavage with 5 cysts of the ME49-Fluc strain isolated from chronically infected CBA/J mice. […] Animals were monitored for survival and weight loss for 30 days post-treatment.

[6] = test system: T. gondii ME49-FLuc tissue cysts; type: in vivo, Ifngr1-/- mice; conditions: mouse, in vivo
Protocol: as §1, §2

[7] = Fig 2A Tg_Pf_Cp EC50s, read-out: EC50 T. gondii
[8] = Table S1, ME49-FLuc tachyzoites, read-out: T. gondii EC50
[9] = Fig S2 source data, read-out: T. gondii (EC50, Fig S2 source data)
[10] = Fig S2 source data, read-out: N. caninum (EC50, Fig S2 source data)
[11] = Table S3, 72 h, lacZ, read-out: N. caninum EC50
[12] = Toxoplasma gondii, Table S1, ME49-FLuc tachyzoites, read-out: T. gondii EC50
[13] = Toxoplasma gondii, Fig. 2b, stereoisomers of BRD3444, mean of two biological replicates, read-out: Tg EC50

Row | Structure (SMILES) | EC50 log inhib vs normalized response [1] | EC50 [1, 7] | EC50 [2] | EC50 [1, 8] | EC50 [1, 12] | other results
1 | COc1ccc(NC(=O)N2CCCN3[C@H](CO)[C@H](c4ccc(C#Cc5ccccc5)cc4)[C@@H]3C2)cc1 [BRD9599] | 1.748 | 1750 nM | 850 nM |  |  | EC50 (C. parvum): 250 nM
2 | COc1ccc(NC(=O)N2CCCCN3[C@H](CN4CCC4)[C@H](c4ccc(C#Cc5ccccc5)cc4)[C@@H]3C2)cc1 [BRD8493] | 0.4416 | 442 nM | 116 nM | 441 nM |  | 
3 | O=C(NC1CCC1)N1CCCCN2[C@H](CO)[C@H](c3ccc(C#Cc4ccccc4)cc3)[C@@H]2C1 [BRD8260] | 2.575 | 2580 nM | 19500 nM |  |  | 
4 | COc1ccc(NC(=O)N2CCCCN3[C@H](CN4CCN(C)CC4)[C@H](c4ccc(C#Cc5ccccc5)cc4)[C@@H]3C2)cc1 [BRD6479] | 0.4249 | 425 nM | 158 nM | 424 nM |  | 
5 | COc1ccc(NC(=O)N2CCCCN3[C@H](CO)[C@H](c4ccc(C#Cc5ccccc5C#N)cc4)[C@@H]3C2)cc1 [BRD4873] | 0.2134 | 213 nM | 261 nM | 213 nM |  | 
6 | COc1ccc(NC(=O)N2CCCCN3C[C@H](c4ccc(C#Cc5ccccc5)cc4)[C@@H]3C2)cc1 [BRD3914] | 0.07697 |  | 13 nM | 76 nM |  | EC50 [1, 9]: 77 nM; EC50 [3, 10]: 193 nM; EC50 [3, 11]: 193 nM; EC50 (C. parvum): 62 nM
7 | OC[C@@H]1[C@H](c2ccc(C#Cc3ccccc3)cc2)[C@@H]2CN(c3nc4ccccc4s3)CCCCN12 [BRD5349] | 3.944 | 3940 nM | 8320 nM |  |  | 
8 | COc1ccc(NC(=O)N2CCCCN3[C@H](CO)[C@H](c4ccc(C#Cc5ccccc5)cc4)[C@H]3C2)cc1 [BRD3182] | 1.697 |  |  |  | 1700 nM | 
9 | COc1ccc(NC(=O)N2CCCCCN3[C@H](CO)[C@H](c4ccc(C#Cc5ccccc5)cc4)[C@@H]3C2)cc1 [BRD0185] | 0.1693 |  | 87 nM | 169 nM |  | EC50 [1, 9]: 169 nM; EC50 [3, 10]: 156 nM; EC50 [3, 11]: 156 nM; EC50 (C. parvum): 33 nM
10 | COc1ccc(NC(=O)N2CCCCN3[C@H](CO)[C@@H](c4ccc(C#Cc5ccccc5)cc4)[C@@H]3C2)cc1 [BRD2574] | 1.487 |  |  |  | 1490 nM | 
11 | COc1ccc(NC(=O)N2CCCCN3[C@@H](CO)[C@@H](c4ccc(C#Cc5ccccc5)cc4)[C@@H]3C2)cc1 [BRD2430] | 1.548 |  |  |  | 1550 nM | 
12 | COc1ccc(NC(=O)N2CCCCN3[C@H](CO)[C@@H](c4ccc(C#Cc5ccccc5)cc4)[C@H]3C2)cc1 [BRD8194] | 2.955 |  |  |  | 2960 nM | 
13 | COc1ccc(NC(=O)N2CCCCN3[C@H](CO)[C@H](c4ccc(C#CC5CC5)cc4)[C@@H]3C2)cc1 [BRD5774] | 1.609 | 1610 nM | 12200 nM |  |  | 
14 | COc1ccc(NC(=O)N2CCCCN3[C@H](C2)[C@H](c2ccc(C#Cc4ccccc4)cc2)[C@@H]3CO)cc1 [BRD4569] | 3.376 |  |  |  | 3380 nM | EC50 [1, 13]: 3370 nM
15 | COc1ccc(NC(=O)N2CCCCN3[C@H](C2)[C@@H](c2ccc(C#Cc4ccccc4)cc2)[C@@H]3CO)cc1 [BRD3801] | 4.096 |  |  |  | 4100 nM | 
16 | CCc1nc(N)nc(N)c1-c1ccc(Cl)cc1 [Pyrimethamine, reference compound] | 0.2476 |  |  |  | 247 nM | EC50 ([1]; Toxoplasma gondii, ME49-FLuc, 10-point dose-response, two biological replicates, read-out: EC50, T. gondii tachyzoite growth): 248 nM; Ex vivo bradyzoite plaques, normalised to DMSO = 100 ([4]; Constant treatment): 2.0 and 0.5 and 1.9; Ex vivo bradyzoite plaques, normalised to DMSO = 100 ([4]; Washout): 115.2 and 93 and 95.5
17 | O=C(Nc1cccc(F)c1)N1CCCCN2[C@H](CO)[C@H](c3ccc(C#Cc4cccnc4)cc3)[C@@H]2C1 [BRD5999] | 0.4926 |  |  | 492 nM |  | 
18 | COc1ccc(NC(=O)N2CCCCN3[C@@H](CO)[C@H](c4ccc(C#Cc5ccccc5)cc4)[C@@H]3C2)cc1 [BRD9995] | 0.1187 |  |  |  | 118 nM | EC50 [1, 13]: 119 nM
19 | Nc1ccc(S(=O)(=O)Nc2ncccn2)cc1 [sulfadiazine, reference compound] |  |  |  |  |  | Days (survival time of single mouse) [5]: 7 days and 9 days and 29 days and 11 days and 5 days; Survival event flag of single mouse (1 or 0) [5]: 1 and 0; mean survival [6]: 10 days
20 | COc1ccc(NC(=O)N2CCCCN3[C@H](CO)[C@H](c4ccc(C#Cc5ccccc5)cc4)[C@]3(CO)C2)cc1 [BRD2936] | 1.687 | 1690 nM | 1870 nM |  |  | EC50 (C. parvum): 1080 nM
21 | COc1ccc(NC(=O)N2C[C@@H](O)[C@@H](O)CN3[C@H](CN(C)C)[C@H](c4ccc(C#Cc5ccccc5)cc4)[C@@H]3C2)cc1 [BRD5018] | 0.03927 |  | 13 nM | 39 nM |  | EC50 [1, 9]: 39.3 nM; EC50 [3, 10]: 29.9 nM; EC50 [3, 11]: 29 nM
22 | COc1ccc(NC(=O)N2CCCCN3[C@@H](CO)[C@H](c4ccc(C#Cc5ccccn5)cc4)[C@@H]3C2)cc1 [BRD9257] | 0.6463 | 646 nM | 155 nM | 646 nM |  | 
